Assay results taken from US20110124888A1, “STYRYLBENZOFURAN DERIVATIVES AS INHIBITORS FOR BETA-AMYLOID FIBRIL FORMATION AND PREPARATION METHOD THEREOF” (Korea Institute of Science and Technology, priority 2008, published 2011).

Experiments:
beta-amyloid 42 (Aβ42) = target: T1, beta-amyloid 42 (Aβ42) (Homo sapiens, UniProt P05067); assay: Inhibitory effect on the formation of beta-amyloid fibrils in vitro (ThT fluorescence assay); format: biochemical; conditions: for IC50: In vitro ThT analysis (Aβ42: 25 μM), experiment of Table 1; for % inhibition against the beta-amyloid 42 formation compared with curcumin: Tables 1 to 6, relative to curcumin
T1 construct: Beta-amyloid 42 (Aβ42) was dissolved in dimethylsulfoxide (DMSO)
T1 sequence (P05067 672-713 limits assumed): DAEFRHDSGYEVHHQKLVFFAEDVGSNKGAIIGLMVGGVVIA
Experimental: In order to investigate the inhibitory effect on the formation of beta-amyloid fibrils, the inventive compounds were examined as follows:
Beta-amyloid 42 (Aβ42) was dissolved in dimethylsulfoxide (DMSO) to form a […] Aβ42 stock solution. In addition, ThT (thioflavin T) was dissolved in distilled water to a concentration of 1 mM and subsequently diluted with 50 mM glycin buffer (pH 8.5) to yield a 5 μM ThT stock solution.
45 μL of PBS (phosphate buffer saline, pH 7.4) was added to each of a 96 well fluorescence microplate (white, F-bottom). 5 μL of the 250 μM Aβ42 stock solution was added to each well. The final concentration of each compound obtained in Examples was in a range of 10 to 0.001 μM by adding 2 μL of a solution, which is prepared by dissolving the subject compounds obtained in Examples in DMSO, to each well. At this time, the final concentration of Aβ42 in each well was 25 μM. The plate was then incubated at room temperature for 1 hr, and 150 μL of the 5 μM ThT stock solution was added to each well.
The fluorescence intensity of each well was determined with the multi label fluorescence counter (LS-55 Luminescence spectrometer, Perkin Elmer) at an excitation wavelength of 450 nm (excitation slit width: 10 nm) and an emission wavelength of 482 nm (emission slit width: 10 nm), while adjusting counting time to 1 second. The control group was prepared by adding PBS solution, Aβ42 and DMSO, without adding the inventive compound. % Inhibition on the formation of beta-amyloid fibrils was calculated in accordance with the following equation and IC5O was calculated by using GraphPad Prism version 4.03 Program.
% Inhibition=[1−(C−D)/(A−B)]×100 Equation 1%
A (control group): fluorescence intensity in a group treated with PBS solution, Aβ42, and DMSO
B (blank): fluorescence intensity in a group treated with PBS solution and DMSO
C (experimental group): fluorescence intensity in a group treated with PBS solution, Aβ42, DMSO, and the inventive compound
D (compensation value to the experimental group): fluorescence intensity in a group treated with PBS solution, DMSO, and the inventive compound

[1] = tested on: transgenic double tg mice (APPswe, PSEN1 dE9); assay: In vivo fear conditioning test in transgenic mice; conditions: 5 to 12 months of age, based on the freezing (%) of Tg vehicle group
Experimental: The tails of 3-week old mice born from Male B6C3-Tg (APPswe, PSEN1 dE9, Jackson Laboratory Co., Maine, A) and female B6C3F1 (central Lab. Animal Inc., Korea) were cut in lengths of about 0.5 cm (tail biopsy). The genomic DNAs were extracted from the tail samples and subjected to a genotype analysis to screen transgenic double tg mice.
From 5 months to 12 months after the birth, the mice were administered orally with the compound of Example 9, in an amount of 30 mg/kg or 100 mg/kg every day. As a comparative compound, tramiprosate (Aisen, P. S. et. al., Curr. Alzheimer Res. 2007, 4, 473) was used, which binds to beta-amyloid protein to inhibit the deposition and cytotoxicity to the protein. The compounds were administrated.
3) Fear Conditioning Test
At the First day of training, the mice were placed in a conditioning box and adjusted for 2 min. The fear conditioning was performed with a conditional stimulus (CS) of 75 dB for 20 sec, together with an electrical stimulus (unconditional stimulus (US)) of 0.5 mA for final 2 sec in the conditional stimulus period. After 1 min, the animals were transferred to a cage. After 24 hrs, the retention test was performed. The animals were placed in the same conditioning box as used above and observed for 5 min. The freezing response was measured without CS and US. The freezing response is defined in the state of the animals keeping still except for breathing.

beta-amyloid 42 = beta-amyloid 42 (Homo sapiens, UniProt P05067); assay: Biochemical test: content of beta-amyloid 42 in hippocampus tissue of transgenic mice; format: in vivo; conditions: hippocampus tissue, based on the content of beta amyloid 42 in the Tg group
beta-amyloid 42, sequence (P05067 672-713 limits assumed): as above

[2] = tested on: congo red-positive beta-amyloid plagues; assay: Immunohistochemistry: congo red-positive beta-amyloid plaque count in hippocampus and cortex of transgenic mice; format: in vivo; conditions: vs Tg group
Experimental: The transgenic mice were screened and drug was administered thereto as described in 1) and 2) of Experimental Example 4. The brain was separated from the transgenic mouse and fixed in 10% neutral formalin solution. A region of the brain including the hippocampus and the cortex were subjected to removal, washing, dehydration and paraffin infiltration to obtain paraffin block including the brain tissue. The paraffin block was subjected to thin section in thickness of 8 μm to obtain the sections of all regions of hippocampus. Among them, 10 sections were elected at regular intervals. They were deparaffinized, hydrated, immersed in Mayer's hematoxylin for 1 min and rinsed with tap water. The rinsed tissue was reacted in an alkaline sodium chloride solution for 20 min, after then was reacted in an alkaline congo red solution for 20 min. The resulting tissue was washed with 100% ethyl alcohol, cleared with xylene and mounted using a synthetic mounting medium. In the hippocampus and cortex regions of the tissue preparations strained with congo red, congo red-positive beta-amyloid plagues were counted.

Row | SMILES | IC50 (beta-amyloid 42 (Aβ42)) [nM] | % inhibition against the beta-amyloid 42 formation compared with curcumin (beta-amyloid 42 (Aβ42)) | melting point [°C] | Increase rate (fold) of freezing ([1]; 30 mg/kg orally every day) [fold] | Increase rate (fold) of freezing ([1]; 100 mg/kg orally every day) [fold] | Reduction rate (%) of beta amyloid 42 content (beta-amyloid 42; 30 mg/kg) [%] | Reduction rate (%) of beta amyloid 42 content (beta-amyloid 42; 100 mg/kg) [%] | Reduction rate (%) of beta-amyloid plaques, cortex ([2]; 30 mg/kg) [%] | Reduction rate (%) of beta-amyloid plaques, hippocampus ([2]; 30 mg/kg) [%] | Total reduction rate (%) of beta-amyloid plaques ([2]; 30 mg/kg) [%] | Reduction rate (%) of beta-amyloid plaques, cortex ([2]; 100 mg/kg) [%] | Reduction rate (%) of beta-amyloid plaques, hippocampus ([2]; 100 mg/kg) [%] | Total reduction rate (%) of beta-amyloid plaques ([2]; 100 mg/kg) [%]
1 | CN(C)c1ccc(C=Cc2cc3cc(O)ccc3o2)cc1 [Compound 3, 5-Hydroxy-2-(4-dimethylaminostyryl)benzofuran] | 163 | superior % inhibition | 177 to 178 |  |  |  |  |  |  |  |  |  | 
2 | Cc1ccc2oc(C=Cc3ccc(N(C)C)cc3)cc2c1 [Compound 4, 5-methyl-2-(4-dimethylaminostyryl)benzofuran] | 128 | superior % inhibition | 188 to 189 |  |  |  |  |  |  |  |  |  | 
3 | COc1ccc2oc(C=Cc3ccc(N(C)C)c(OC)c3)cc2c1 [Compound 22, 5-methoxy-2-(3-methoxy-4-dimethylaminostyryl)benzofuran] | 156 | superior % inhibition | 226.5 to 227.5 |  |  |  |  |  |  |  |  |  | 
4 | NCCCS(=O)(=O)O [Tramiprosate, tramiprosate, reference compound] |  |  |  | 2.3 | 1.8 | 8 | 16 | 32 | 7 | 29 | 12 | 7 | 11
